23 compounds from patent US20250332173A1, “COMPOUNDS AND METHODS FOR MODULATING NUCLEIC ACID SPLICING” (REMIX THERAPEUTICS INC., priority 2021, published 2025) can be followed below.

Like-named read-outs stand apart in the source and are kept apart here.

One assay concerns HTT mRNA. As to the kind of experiment: RT-qPCR splicing assay, HTT canonical junction (CJ) and alternative junction (AJ) mRNA. The format is cell-based, human. The settings on record: Homo sapiens; for AC50: increase in HTT alternative junction (AJ) mRNA, read-out: HTT AJ AC50. The method, boiled down:
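A673 or K562 cells were treated for 24 h at 37 °C with an 11-point 3-fold compound dilution series (top final concentration 10 uM, DMSO ≤0.25%). After lysis, one-step TaqMan RT-qPCR quantified junction transcripts, normalized to PPIA for A673 or to GAPDH/GUSB for K562.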

For the next assay, the system named is HTT. As to the kind of experiment: HiBiT protein abundance assay, HTT HiBiT K562 cell line. The format is cell-based, human. The settings on record: HiBiT K562 cell line, 24 hours, top dose 10 μM; read-out: Effect on protein abundance, HTT (IC50 category). A digest of the protocol: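 Endogenous targets in K562 knock-in lines carried a HiBiT tag and were treated for 24 h at 37 °C with 10-point 3-fold dilutions (top 10 μM final, DMSO ≤0.25%). Abundance was read as lytic Nano-Glo HiBiT luminescence. IC50 came from a four-parameter logistic fit of normalized response.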

The test system of assay [1] is K562 (human chronic myelogenous leukemia) cells. As to the kind of experiment: Cell Titer Glo 2.0 cell viability assay. The format is cell-based. Conditions: Homo sapiens, K562, 72 h, K562 cells, 72 hours, Cell Titer Glo 2.0; read-out: K562 GI50.
[2] abbreviates: decrease in HTT canonical junction (CJ) mRNA, RT-qPCR, read-out: HTT CJ IC50.
[3] abbreviates: Table 5 panel, canonical junction qPCR, compound concentration having 50% response in CJ decrease, read-out: HTT IC50 (decrease in CJ mRNA levels).

On to `Cc1cn2cc(-c3cc(F)c4c(=O)n([C@@H]5CCNC5)ccc4c3)cc(F)c2n1` (single isomer, unassigned) [Compound 395], for which the values for the IC50 with HTT mRNA (setting [2]), with HTT mRNA (setting [3]) and with HTT were 1 to 10 µM, 1 to 10 µM and 0.1 to 1 µM, respectively. Besides, the AC50 in the assay with HTT mRNA (RT-qPCR) was 1 to 10 µM. Further, the GI50 in assay [1] was 0.1 to 1 µM.

In the case of `Cc1cn2cc(-c3cc(F)c4c(=O)n([C@H]5CCNC5)ccc4c3)cc(F)c2n1` (single isomer, unassigned) [Compound 396], the IC50 was 1 to 10 µM with HTT mRNA (setting [2]), 1 to 10 µM in the assay on HTT mRNA (setting [3]) and 0.1 to 1 µM in the assay with HTT. Besides, the AC50 with HTT mRNA (RT-qPCR) was 1 to 10 µM. Moreover, in assay [1], the 50% growth inhibitory concentration (GI50) lay in the range of 0.1 to 1 µM.

Consider `Cc1cn2cc(-c3ccc4c(=O)n([C@@H]5CCCNC5)ccc4c3)cc(F)c2n1` (single isomer, unassigned) [Compound 403], for which the IC50 in the assay on HTT mRNA (setting [2]), in the assay on HTT mRNA (setting [3]) and in the assay with HTT was 1 to 10 µM in each case. Besides, the AC50 in the assay with HTT mRNA (RT-qPCR) lay in the range of 1 to 10 µM. Besides, the GI50 in assay [1] is 1 to 10 µM.

For `Cc1cn2nc(-c3cc(F)c4c(=O)n([C@@H]5CCNC6(CC6)C5)ccc4c3)cc(C)c2n1` (single isomer, unassigned) [Compound 425], the IC50 in the assay on HTT mRNA (setting [2]), with HTT mRNA (setting [3]) and in the assay on HTT was less than 0.1 µM throughout. Further, the AC50 with HTT mRNA (RT-qPCR) is less than 0.1 µM. Further, in assay [1], the GI50 was less than 0.1 µM.

For the compound `Cc1cn2nc(-c3cc(F)c4c(=O)n([C@H]5CCNC6(CC6)C5)ccc4c3)cc(C)c2n1` (single isomer, unassigned) [Compound 426], the IC50 with HTT mRNA (setting [2]), in the assay with HTT mRNA (setting [3]) and in the assay on HTT was less than 0.1 µM throughout. The AC50 in the assay with HTT mRNA (RT-qPCR) is less than 0.1 µM. For the same compound, in assay [1], the GI50 was less than 0.1 µM.

As for `Cc1cn2nc(-c3ccc4c(=O)n([C@@H]5CCNC6(CC6)C5)ncc4c3)cc(C)c2n1` (stereo in doubt) [Compound 368, 2-[(7R)-4-azaspiro[2.5]octan-7-yl]-6-{2,8-dimethylimidazo[1,2-b]pyridazin-6-yl}phthalazin-1-one], the IC50 in the assay on HTT mRNA (setting [2]), in the assay with HTT mRNA (setting [3]) and with HTT was less than 0.1 µM in each case. In addition, in the assay on HTT mRNA (RT-qPCR), the AC50 is less than 0.1 µM. For the same compound, in assay [1], the GI50 is 0.1 to 1 µM.

Take `Cc1cn2nc(-c3cc(F)c4c(=O)n(C5CCNC5)ccc4c3)cc(C)c2n1` (stereo in doubt) [Compound 382, (R)-6-(2,8-dimethylimidazo[1,2-b]pyridazin-6-yl)-8-fluoro-2-(pyrrolidin-3-yl)isoquinolin-1(2H)-one]: the IC50 in the assay with HTT mRNA (setting [2]), with HTT mRNA (setting [3]) and in the assay on HTT was 1 to 10 µM each time. Further, the AC50 in the assay on HTT mRNA (RT-qPCR) fell in the range of 1 to 10 µM. In addition, the GI50 in assay [1] was 1 to 10 µM.

Take `Cc1cn2nc(-c3cc(F)c4c(=O)n(C5CCNC5)ccc4c3)cc(C)c2n1` (stereo in doubt) [Compound 392, (S)-6-(2,8-dimethylimidazo[1,2-b]pyridazin-6-yl)-8-fluoro-2-(pyrrolidin-3-yl)isoquinolin-1(2H)-one]: the IC50 in the assay with HTT mRNA (setting [2]), in the assay on HTT mRNA (setting [3]) and in the assay with HTT was 1 to 10 µM each time. The AC50 in the assay on HTT mRNA (RT-qPCR) is 1 to 10 µM. Besides, in assay [1], the GI50 lay in the range of 1 to 10 µM.

Take `Cc1cn2nc(-c3cc(C)c4c(=O)n(C5CCNC6(CC6)C5)ccc4c3)cc(C)c2n1` (stereo in doubt) [Compound 397, (S)-6-(2,8-dimethylimidazo[1,2-b]pyridazin-6-yl)-8-methyl-2-(4-azaspiro[2.5]octan-7-yl)isoquinolin-1(2H)-one]: the IC50 in the assay on HTT mRNA (setting [2]), in the assay on HTT mRNA (setting [3]) and in the assay on HTT was less than 0.1 µM in each case. In the assay on HTT mRNA (RT-qPCR), the AC50 was less than 0.1 µM. Moreover, the GI50 in assay [1] was in the range of 0.1 to 1 µM.

`Cc1cn2nc(-c3cc(C)c4c(=O)n(C5CCNC6(CC6)C5)ccc4c3)cc(C)c2n1` (stereo in doubt) [Compound 398, (R)-6-(2,8-dimethylimidazo[1,2-b]pyridazin-6-yl)-8-methyl-2-(4-azaspiro[2.5]octan-7-yl)isoquinolin-1(2H)-one]: the IC50 in the assay with HTT mRNA (setting [2]), in the assay with HTT mRNA (setting [3]) and in the assay with HTT was less than 0.1 µM in each case. In the assay on HTT mRNA (RT-qPCR), the AC50 was less than 0.1 µM. In addition, the GI50 in assay [1] is less than 0.1 µM.

In the case of `Cc1cn2nc(-c3ccc4c(=O)n(C5CCCNC5)ccc4c3)cc(C)c2n1` (stereo in doubt) [Compound 410, 6-{2,8-dimethylimidazo[1,2-b]pyridazin-6-yl}-2-[(3S)-piperidin-3-yl]isoquinolin-1-one], the results for the IC50 in the assay with HTT mRNA (setting [2]), in the assay on HTT mRNA (setting [3]) and with HTT were 1 to 10 µM, 1 to 10 µM and 0.1 to 1 µM, respectively. Moreover, in the assay on HTT mRNA (RT-qPCR), the AC50 is 1 to 10 µM. Besides, in assay [1], the GI50 lay in the range of 1 to 10 µM.

`Cc1cn2nc(-c3ccc4c(=O)n(C5CCCNC5)ccc4c3)cc(C)c2n1` (stereo in doubt) [Compound 411, 6-{2,8-dimethylimidazo[1,2-b]pyridazin-6-yl}-2-[(3R)-piperidin-3-yl]isoquinolin-1-one]: the IC50 with HTT mRNA (setting [2]), with HTT mRNA (setting [3]) and in the assay with HTT was 1 to 10 µM in each case. Further, the AC50 with HTT mRNA (RT-qPCR) lay in the range of 1 to 10 µM. Besides, the GI50 in assay [1] is 1 to 10 µM.

`Cc1cn2cc(-c3cc(F)c4c(=O)n(C5CCOC5)cnc4c3)cc(C#N)c2n1` (stereo in doubt) [Compound 499, (R)-6-(5-fluoro-4-oxo-3-(tetrahydrofuran-3-yl)-3,4-dihydroquinazolin-7-yl)-2-methylimidazo[1,2-a]pyridine-8-carbonitrile]: the IC50 in the assay with HTT mRNA (setting [2]), in the assay on HTT mRNA (setting [3]) and in the assay with HTT was 0.1 to 1 µM in each case. Besides, the AC50 in the assay with HTT mRNA (RT-qPCR) was in the range of 0.1 to 1 µM. The GI50 in assay [1] lay within 0.1 to 1 µM.

In the case of `Cc1cn2cc(-c3cc(F)c4c(=O)n(C5CCOC5)cnc4c3)cc(C#N)c2n1` (stereo in doubt) [Compound 500, (S)-6-(5-fluoro-4-oxo-3-(tetrahydrofuran-3-yl)-3,4-dihydroquinazolin-7-yl)-2-methylimidazo[1,2-a]pyridine-8-carbonitrile], the IC50 in the assay with HTT mRNA (setting [2]), in the assay with HTT mRNA (setting [3]) and in the assay on HTT was 0.1 to 1 µM throughout. Moreover, the AC50 in the assay on HTT mRNA (RT-qPCR) was 0.1 to 1 µM. In addition, the GI50 in assay [1] lay within 0.1 to 1 µM.

`Cn1cc2cc(-n3cnc4cc(C5=CC6CCC(C5)N6)ccc4c3=O)ccc2n1` (stereo not drawn) [Compound 160]: the IC50 in the assay with HTT mRNA (setting [2]), in the assay on HTT mRNA (setting [3]) and in the assay on HTT was greater than 10 µM throughout. In addition, in the assay on HTT mRNA (RT-qPCR), the AC50 was greater than 10 µM. Besides, the GI50 in assay [1] is greater than 10 µM.

Consider `CN1C2C=C(c3ccc4c(=O)n(-c5ccc6nn(C)cc6c5)cnc4c3)CC1CC2` (stereo not drawn) [Compound 161], for which the half-inhibitory concentration (IC50) in the assay on HTT mRNA (setting [2]), in the assay on HTT mRNA (setting [3]) and with HTT was greater than 10 µM throughout. In addition, the AC50 in the assay on HTT mRNA (RT-qPCR) is greater than 10 µM. Further, the GI50 in assay [1] was greater than 10 µM.

Turning to `Cn1cc2cc(-n3cnc4cc(NC5CCNCC5)ccc4c3=O)ccc2n1` [Compound 162], the IC50 with HTT mRNA (setting [2]), in the assay with HTT mRNA (setting [3]) and in the assay on HTT was greater than 10 µM in each case. For the same compound, in the assay on HTT mRNA (RT-qPCR), the AC50 was greater than 10 µM.

Turning to `CN1CCC(Nc2ccc3c(=O)n(-c4ccc5nn(C)cc5c4)cnc3c2)CC1` [Compound 163], the IC50 in the assay with HTT mRNA (setting [2]), in the assay on HTT mRNA (setting [3]) and in the assay on HTT was greater than 10 µM each time. In addition, in the assay with HTT mRNA (RT-qPCR), the AC50 was greater than 10 µM. In addition, the GI50 in assay [1] is greater than 10 µM.

In the case of `Cn1cc2cc(-n3cnc4cc(C5CCNCC5)ccc4c3=O)ccc2n1` [Compound 172], the IC50 in the assay with HTT mRNA (setting [2]), with HTT mRNA (setting [3]) and in the assay on HTT was greater than 10 µM each time. In addition, the AC50 in the assay on HTT mRNA (RT-qPCR) is greater than 10 µM. Further, the GI50 in assay [1] was in the range of 1 to 10 µM.

As for `Cc1cc(-c2ccc3c(=O)n(C4CCN(C)CC4)cnc3n2)cc2cn(C)nc12` [Compound 173], the IC50 in the assay on HTT mRNA (setting [2]), with HTT mRNA (setting [3]) and with HTT was greater than 10 µM throughout. Besides, the AC50 in the assay with HTT mRNA (RT-qPCR) is greater than 10 µM. Also, the GI50 in assay [1] was in the range of 1 to 10 µM.

On to `Cc1cc(-c2ccc3c(=O)n(C4CCNCC4)cnc3c2)cc2cn(C)nc12` [Compound 174], for which the IC50 with HTT mRNA (setting [2]), in the assay on HTT mRNA (setting [3]) and in the assay with HTT was 0.1 to 1 µM each time. Moreover, the AC50 with HTT mRNA (RT-qPCR) is 0.1 to 1 µM. The GI50 in assay [1] was 0.1 to 1 µM.

Consider `Cc1cn2cc(-c3cc(N)c4c(=O)n(C5CCNCC5)cnc4c3)cc(C#N)c2n1` [Compound 364, 6-[5-amino-4-oxo-3-(piperidin-4-yl)quinazolin-7-yl]-2-methylimidazo[1,2-a]pyridine-8-carbonitrile], for which the IC50 with HTT mRNA (setting [2]), with HTT mRNA (setting [3]) and with HTT was greater than 10 µM in each case. Further, the AC50 with HTT mRNA (RT-qPCR) was greater than 10 µM. Besides, the GI50 in assay [1] was greater than 10 µM.

Take `Cn1cc2c(n1)CCN(c1cc(F)c3c(=O)n(C4CCNCC4)cnc3c1)C2` [Compound 365, 5-fluoro-7-(2-methyl-2,4,6,7-tetrahydro-5H-pyrazolo[4,3-c]pyridin-5-yl)-3-(piperidin-4-yl)quinazolin-4(3H)-one]: the IC50 in the assay with HTT mRNA (setting [2]), with HTT mRNA (setting [3]) and in the assay with HTT was greater than 10 µM throughout. The AC50 in the assay with HTT mRNA (RT-qPCR) is greater than 10 µM. Moreover, the GI50 in assay [1] is greater than 10 µM.
